Reference: patent US20150175530A1, “ANTIBACTERIAL AGENTS” (priority 2012, published 2015)
≈ marks a conversion by molar mass, not a printed value. Where two headings read alike, the source gives them in different places.

Tests used:
[1] = system: 3 P. aeruginosa strains (APAE001, APAE002, APAE006); assay: Protein binding: fold change in MIC in the presence of 2% HSA and 0.05% AGP, Geomean of 3 strains; assay type: cell-based, Pseudomonas aeruginosa; conditions: MIC in the presence of 2% HSA and 0.05% AGP divided by MIC in the absence; Geomean of 3 P. aeruginosa strains (APAE001, APAE002, APAE006)
Method: The effect of human serum albumin (HSA) and α-1-acid glycoprotein (AGP) from human plasma, which are known to nonspecifically bind to certain antibiotics and thereby reduce their activity (Banéres-Roquet et al. 2009 “Use of a Surface Plasmon Resonance Method to Investigate Antibiotic and Plasma Protein Interactions” Antimicrob. Agents and Chemother. 53(4):1528-1531), was assessed against 3 P. aeruginosa strains (APAE001, APAE002, APAE006). APAE001 is Pseudomonas aeruginosa ATCC27853; APAE002 is a wildtype lab strain of Pseudomonas aeruginosa known as PAM1020 or PA01. APAE006 is a strain of […]/PA01 with efflux deletions: delta mexAB-oprM::CM delta CD-oprJ::Gm delta mexEF-oprN::omega Hg. Lomovskaya, 0 et al. 1999. Use of a Genetic Approach To Evaluate the Consequences of Inhibition of Efflux Pumps in P aeruginosa. Antimicrob. Agents Chemother. 43: 1340-1346.
The standard procedure described in Susceptibility Testing was utilized with one adjustment, specifically 2% HSA and 0.05% AGP were added to the cation adjusted Mueller-Hinton Broth. The MIC for each strain of interest was then assessed in the presence and absence of HSA/AGP. Following MIC determination, the fold change in MIC was determined for each individual strain by dividing the MIC in the presence of HSA/AGP by the MIC in the absence of HSA/AGP. The protein binding Geomean was then calculated using these 3 values.

[2] = system: bacterial isolates (clinical isolates and ATCC quality control strains); assay: Minimum Inhibitory Concentrations (MICs) by broth microdilution (CLSI susceptibility testing); assay type: cell-based
Method: Bacterial isolates were cultivated from −70° C. frozen stocks by overnight passages at 35° C. in ambient air on Mueller-Hinton agar (Beckton Dickinson, Franklin Lakes, N.J.). Clinical isolates tested were obtained from various geographically diverse hospitals in the US and abroad (Focus Diagnostics, Herndon, Va. and JMI, North Liberty, Iowa). Quality control strains were from the American Type Culture Collection (ATCC; Rockville, Md.).
Minimum Inhibitory Concentrations (MICs) were determined by the broth microdilution method in accordance with the Clinical and Laboratory Standards Institute (CLSI) guidelines. In brief, organism suspensions were adjusted to a 0.5 McFarland standard to yield a final inoculum between 3×10^5 and 7×10^5 colony-forming units (CFU)/mL. Drug dilutions and inocula were made in sterile, cation adjusted Mueller-Hinton Broth (Beckton Dickinson). An inoculum volume of 100 μL was added to wells containing 100 μL of broth with 2-fold serial dilutions of drug. All inoculated microdilution trays were incubated in ambient air at 35° C. for 18-24 h. Following incubation, the lowest concentration of the drug that prevented visible growth (OD600 nm<0.05) was recorded as the MIC. Performance of the assay was monitored by the use of laboratory quality-control strains and levofloxacin, a compound with a defined MIC spectrum, in accordance with CLSI guidelines.

[3] = APAE1096 is a clinical isolate, broth microdilution, read-out: Minimum Inhibitory Concentrations (MICs) APAE1096
[4] = Pseudomonas aeruginosa, APAE002 is a wildtype lab strain of Pseudomonas aeruginosa known as PAM1020 or PA01, broth microdilution, read-out: Minimum Inhibitory Concentrations (MICs) APAE002
[5] = Pseudomonas aeruginosa, ATCC27853, APAE001 is Pseudomonas aeruginosa ATCC27853, broth microdilution, read-out: Minimum Inhibitory Concentrations (MICs) APAE001
[6] = Pseudomonas aeruginosa, ATCC27853, read-out: Minimum Inhibitory Concentrations (MICs) APAE001
[7] = Pseudomonas aeruginosa, read-out: Minimum Inhibitory Concentrations (MICs) APAE002
[8] = read-out: Minimum Inhibitory Concentrations (MICs) APAE1096

| SMILES | Protein Binding PB (Geomean of fold change in MIC) [1] | MIC [2, 3] [µg/mL] | MIC [2, 4] [µg/mL] | MIC [2, 5] [µg/mL] | MIC [2, 6] [µg/mL] | MIC [2, 7] [µg/mL] | MIC [2, 8] [µg/mL] |
| --- | --- | --- | --- | --- | --- | --- | --- |
| CC(C)(N)[C@H](NC(=O)c1ccc(C#CC#C[C@H]2CC[C@](O)(CO)CC2)cc1)C(=O)NO [Compound 33B, N—((S)-3-amino-1-(hydroxyamino)-3-methyl-1-oxobutan-2-yl)-4-(((1R,4S)-4-hydroxy-4-(hydroxymethyl)cyclohexyl)buta-1,3-diynyl)benzamide] | 5.1 | 1 to 8 (≈ 2.34 to 18.7 µM) | 1 to 8 (≈ 2.34 to 18.7 µM) | < 1 |  |  |  |
| CC(C)(O)[C@H](NC(=O)c1ccc(C#CC#CCCO)cc1)C(=O)NO [Compound 34, (S)—N-(3-hydroxy-1-(hydroxyamino)-3-methyl-1-oxobutan-2-yl)-4-(6-hydroxyhexa-1,3-diynyl)benzamide] | 2.8 | 1 to 8 (≈ 2.9 to 23.2 µM) | < 1 | < 1 |  |  |  |
| C[C@@H](N)[C@H](NC(=O)c1ccc(C#CC#CCCO)cc1)C(=O)NO [Compound 35, N-((2S,3R)-3-amino-1-(hydroxyamino)-1-oxobutan-2-yl)-4-(6-hydroxyhexa-1,3-diyn-1-yl)benzamide] | 2.0 | 1 to 8 (≈ 3.04 to 24.3 µM) | < 1 | < 1 |  |  |  |
| CC(C)(N)[C@H](NC(=O)c1ccc(C#CC#CC[C@H](O)CO)cc1)C(=O)NO [Compound 36, N—((S)-3-amino-1-(hydroxyamino)-3-methyl-1-oxobutan-2-yl)-4-((S)-6,7-dihydroxyhepta-1,3-diyn-1-yl)benzamide] | 2.3 |  |  |  | < 1 | < 1 | 1 to 8 (≈ 2.68 to 21.4 µM) |
| CC(C)(N)[C@H](NC(=O)c1ccc(C#CC#CC[C@@H](O)CO)cc1)C(=O)NO [Compound 37, N—((S)-3-amino-1-(hydroxyamino)-3-methyl-1-oxobutan-2-yl)-4-((R)-6,7-dihydroxyhepta-1,3-diyn-1-yl)benzamide] | 1.4 |  |  |  | 1 to 8 (≈ 2.68 to 21.4 µM) | 1 to 8 (≈ 2.68 to 21.4 µM) | 1 to 8 (≈ 2.68 to 21.4 µM) |
| C[C@@H](O)[C@H](NC(=O)c1ccc(C#CC#CCCO)cc1)C(=O)NO [Compound 38, N-((2S,3R)-3-hydroxy-1-(hydroxyamino)-1-oxobutan-2-yl)-4-(6-hydroxyhexa-1,3-diyn-1-yl)benzamide] | 2 | 1 to 8 (≈ 3.03 to 24.2 µM) | < 1 | 1 to 8 (≈ 3.03 to 24.2 µM) |  |  |  |
| CC(C#CC#Cc1ccc(C(=O)N[C@H](C(=O)NO)C(C)(C)N)cc1)CO (stereo partly drawn) [Compound 39, N—((S)-3-amino-1-(hydroxyamino)-3-methyl-1-oxobutan-2-yl)-4-(6-hydroxy-5-methylhexa-1,3-diyn-1-yl)benzamide] | 2.8 | 1 to 8 (≈ 2.8 to 22.4 µM) | < 1 | < 1 |  |  |  |
| C[C@H](O)C#CC#Cc1ccc(C(=O)N[C@H](C(=O)NO)C(C)(C)O)cc1 [Compound 40, N—((S)-3-hydroxy-1-(hydroxyamino)-3-methyl-1-oxobutan-2-yl)-4-((S)-5-hydroxyhexa-1,3-diyn-1-yl)benzamide] | 2.6 | 1 to 8 (≈ 2.9 to 23.2 µM) | < 1 | 1 to 8 (≈ 2.9 to 23.2 µM) |  |  |  |
| C[C@H](O)C#CC#Cc1ccc(C(=O)N[C@H](C(=O)NO)[C@@H](C)N)cc1 [Compound 41, N-((2S,3R)-3-amino-1-(hydroxyamino)-1-oxobutan-2-yl)-4-((S)-5-hydroxyhexa-1,3-diyn-1-yl)benzamide] | 2 | 1 to 8 (≈ 3.04 to 24.3 µM) | < 1 | < 1 |  |  |  |
| C[C@H](O)C#CC#Cc1ccc(C(=O)N[C@H](C(=O)NO)[C@@H](C)O)cc1 [Compound 42, N-((2S,3R)-3-hydroxy-1-(hydroxyamino)-1-oxobutan-2-yl)-4-((S)-5-hydroxyhexa-1,3-diyn-1-yl)benzamide] | 2.6 | 8 to 16 (≈ 24.2 to 48.4 µM) | 1 to 8 (≈ 3.03 to 24.2 µM) | 1 to 8 (≈ 3.03 to 24.2 µM) |  |  |  |
| CNC(C)(C)[C@H](NC(=O)c1ccc(C#CC#CC[C@H](O)CO)cc1)C(=O)NO [Compound 43, 4-((S)-6,7-dihydroxyhepta-1,3-diyn-1-yl)-N—((S)-1-(hydroxyamino)-3-methyl-3-(methylamino)-1-oxobutan-2-yl)benzamide] | 1.6 | 1 to 8 (≈ 2.58 to 20.6 µM) | < 1 | < 1 |  |  |  |
| CNC(C)(C)[C@H](NC(=O)c1ccc(C#CC#CC[C@@H](O)CO)cc1)C(=O)NO [Compound 44, 4-((R)-6,7-dihydroxyhepta-1,3-diyn-1-yl)-N—((S)-1-(hydroxyamino)-3-methyl-3-(methylamino)-1-oxobutan-2-yl)benzamide] | 2.0 | 1 to 8 (≈ 2.58 to 20.6 µM) | < 1 | < 1 |  |  |  |
| C[C@@H](N)[C@H](NC(=O)c1ccc(C#CC#CC(O)CO)cc1)C(=O)NO (stereo partly drawn) [Compound 45, N-((2S,3R)-3-amino-1-(hydroxyamino)-1-oxobutan-2-yl)-4-(5,6-dihydroxyhexa-1,3-diyn-1-yl)benzamide] | 2.0 |  |  |  | 1 to 8 (≈ 2.9 to 23.2 µM) | < 1 | 1 to 8 (≈ 2.9 to 23.2 µM) |
| COC(C#CC#Cc1ccc(C(=O)N[C@H](C(=O)NO)C(C)(C)N)cc1)CO (stereo partly drawn) [Compound 47, N—((S)-3-amino-1-(hydroxyamino)-3-methyl-1-oxobutan-2-yl)-4-(6-hydroxy-5-methoxyhexa-1,3-diyn-1-yl)benzamide] | 2.6 |  |  |  | < 1 | < 1 | 1 to 8 (≈ 2.68 to 21.4 µM) |
| CN[C@H](C)[C@H](NC(=O)c1ccc(C#CC#CCCO)cc1)C(=O)NO [Compound 48, N-((2S,3R)-1-(hydroxyamino)-3-(methylamino)-1-oxobutan-2-yl)-4-(6-hydroxyhexa-1,3-diyn-1-yl)benzamide] | 2.0 | 1 to 8 (≈ 2.91 to 23.3 µM) | < 1 | < 1 |  |  |  |
| CN[C@H](C)[C@H](NC(=O)c1ccc(C#CC#C[C@H](C)O)cc1)C(=O)NO [Compound 49, N-((2S,3R)-1-(hydroxyamino)-3-(methylamino)-1-oxobutan-2-yl)-4-((S)-5-hydroxyhexa-1,3-diyn-1-yl)benzamide] | 2.0 | 1 to 8 (≈ 2.91 to 23.3 µM) | < 1 | < 1 |  |  |  |
| CC(O)(C#CC#Cc1ccc(C(=O)N[C@H](C(=O)NO)C(C)(C)N)cc1)CO (stereo partly drawn) [Compound 50, N—((S)-3-amino-1-(hydroxyamino)-3-methyl-1-oxobutan-2-yl)-4-(5,6-dihydroxy-5-methylhexa-1,3-diyn-1-yl)benzamide] | 1.6 | 8 to 16 (≈ 21.4 to 42.8 µM) | 1 to 8 (≈ 2.68 to 21.4 µM) | < 1 |  |  |  |
| CNC(C)(C)[C@H](NC(=O)c1ccc(C#CC#CC(O)CO)cc1)C(=O)NO (stereo partly drawn) [Compound 51, 4-(5,6-dihydroxyhexa-1,3-diyn-1-yl)-N—((S)-1-(hydroxyamino)-3-methyl-3-(methylamino)-1-oxobutan-2-yl)benzamide] | 1.6 | 1 to 8 (≈ 2.68 to 21.4 µM) | < 1 | < 1 |  |  |  |
| CC(C)(N)[C@H](NC(=O)c1ccc(C#C/C=C/CC(O)CO)cc1)C(=O)NO (stereo partly drawn) [Compound 52, N—((S)-3-amino-1-(hydroxyamino)-3-methyl-1-oxobutan-2-yl)-4-((E)-6,7-dihydroxyhept-3-en-1-yn-1-yl)benzamide] | 1.0 | 8 to 16 (≈ 21.3 to 42.6 µM) | 1 to 8 (≈ 2.66 to 21.3 µM) | 1 to 8 (≈ 2.66 to 21.3 µM) |  |  |  |
